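These data come from cells grown in 96-well plates and exposed to compound for 48 hours at five concentrations. Here, GI50 denotes the concentration required for 50% inhibition of growth.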 Calls of active or inactive are those of the source. No stated cut-off is given here; in the data, active = GI50 up to about 1.1 µM and inactive = higher.
How the values were obtained:
Experiment in all cases: growth of human tumour cells (NCI), 48 h
DMS-114 = system: DMS-114
Malme-3M = system: Malme-3M
MOLT-4 = system: MOLT-4
HOP-62 = system: HOP-62
NCI-H460 = system: NCI-H460
OVCAR-5 = system: OVCAR-5
KM12 = system: KM12
SNB-75 = system: SNB-75
SNB-78 = system: SNB-78
UACC-62 = system: UACC-62
SK-MEL-5 = system: SK-MEL-5
TK-10 = system: TK-10
M14 = system: M14
DMS-273 = system: DMS-273
A549 = system: A549
HCT-15 = system: HCT-15
KM-20L2 = system: KM-20L2
HL-60 = system: HL-60
CCRF-CEM = system: CCRF-CEM
RXF 631 = system: RXF 631
NCI-H226 = system: NCI-H226
RXF 393 = system: RXF 393
U-251 = system: U-251
NCI-H23 = system: NCI-H23
XF498 = system: XF498
A498 = system: A498
SF-295 = system: SF-295
ACHN = system: ACHN
UO-31 = system: UO-31
HT-29 = system: HT-29
CAKI-1 = system: CAKI-1
SK-MEL-2 = system: SK-MEL-2
K562 = system: K562
OVCAR-8 = system: OVCAR-8
HCC 2998 = system: HCC 2998
EKVX = system: EKVX
786-0 = system: 786-0
IGROV-1 = system: IGROV-1
M19-MEL = system: M19-MEL
SK-MEL-28 = system: SK-MEL-28
SW-620 = system: SW-620
UACC-257 = system: UACC-257
LXFL 529 = system: LXFL 529
HCT-116 = system: HCT-116
SF-539 = system: SF-539
OVCAR-3 = system: OVCAR-3
RPMI-8226 = system: RPMI-8226
OVCAR-4 = system: OVCAR-4
SK-OV-3 = system: SK-OV-3
DLD-1 = system: DLD-1
SR = system: SR
SF-268 = system: SF-268
SNB-19 = system: SNB-19
SN12C = system: SN12C
LOX IMVI = system: LOX IMVI
COLO 205 = system: COLO 205
NCI-H522 = system: NCI-H522

Q: What does the source list for `Cc1ccc(S(=O)(=O)c2ccccc2[N+](=O)[O-])cc1`?
A: GI50 (DMS-114): 44.6 µM (inactive); GI50 (Malme-3M): 85.1 µM (inactive); GI50 (MOLT-4): 66.7 µM (inactive); GI50 (HOP-62): 92.3 µM (inactive); GI50 (NCI-H460): > 100 µM (inactive); GI50 (OVCAR-5): > 100 µM (inactive); GI50 (KM12): > 100 µM (inactive); GI50 (SNB-75): > 100 µM (inactive); GI50 (SNB-78): > 100 µM (inactive); GI50 (UACC-62): 37.4 µM (inactive); GI50 (SK-MEL-5): 52.1 µM (inactive); GI50 (TK-10): > 100 µM (inactive); GI50 (M14): > 100 µM (inactive); GI50 (DMS-273): > 100 µM (inactive); GI50 (A549): > 100 µM (inactive); GI50 (HCT-15): > 100 µM; GI50 (KM-20L2): > 100 µM (inactive); GI50 (HL-60): 37.5 µM (inactive); GI50 (CCRF-CEM): > 100 µM (inactive); GI50 (RXF 631): 49.1 µM (inactive); GI50 (NCI-H226): > 100 µM (inactive); GI50 (RXF 393): 37.3 µM (inactive); GI50 (U-251): > 100 µM (inactive); GI50 (NCI-H23): 55.2 µM (inactive); GI50 (XF498): > 100 µM (inactive); GI50 (A498): > 100 µM (inactive); GI50 (SF-295): > 100 µM (inactive); GI50 (ACHN): > 100 µM (inactive); GI50 (UO-31): 81.8 µM (inactive); GI50 (HT-29): > 100 µM (inactive); GI50 (CAKI-1): 67.5 µM (inactive); GI50 (SK-MEL-2): > 100 µM (inactive); GI50 (K562): 73.3 µM (inactive); GI50 (OVCAR-8): > 100 µM (inactive); GI50 (HCC 2998): > 100 µM (inactive); GI50 (EKVX): > 100 µM (inactive); GI50 (786-0): > 100 µM (inactive); GI50 (IGROV-1): > 100 µM (inactive); GI50 (M19-MEL): > 100 µM (inactive); GI50 (SK-MEL-28): > 100 µM (inactive); GI50 (SW-620): > 100 µM (inactive); GI50 (UACC-257): 72.6 µM (inactive); GI50 (LXFL 529): > 100 µM (inactive); GI50 (HCT-116): 66.8 µM (inactive); GI50 (SF-539): > 100 µM (inactive); GI50 (OVCAR-3): > 100 µM (inactive); GI50 (RPMI-8226): 80.7 µM (inactive); GI50 (OVCAR-4): 86.9 µM (inactive); GI50 (SK-OV-3): > 100 µM (inactive); GI50 (DLD-1): > 100 µM (inactive)

Q: With `O=C1c2ccccc2C(=O)N1C/C=N/NS(=O)(=O)c1ccc(Cl)cc1` as the compound, how does the GI50 (DMS-114) read?
A: > 100 µM (inactive)

Q: What about the GI50 (SR) of the same compound?
A: > 100 µM (inactive)

Q: And the GI50 (Malme-3M)?
A: > 100 µM (inactive)

Q: What about the GI50 (MOLT-4) of the same compound?
A: > 100 µM (inactive)

Q: What about the GI50 (HOP-62) of the same compound?
A: > 100 µM (inactive)

Q: And the GI50 (NCI-H460)?
A: > 100 µM (inactive)

Q: What about the GI50 (SNB-75) of the same compound?
A: 66.1 µM (inactive)

Q: And the GI50 (UACC-62)?
A: > 100 µM (inactive)

Q: And the GI50 (SK-MEL-5)?
A: > 100 µM (inactive)

Q: What about the GI50 (SF-268) of the same compound?
A: > 100 µM (inactive)

Q: And the GI50 (TK-10)?
A: > 100 µM (inactive)

Q: And the GI50 (M14)?
A: > 100 µM (inactive)

Q: And the GI50 (DMS-273)?
A: > 100 µM (inactive)

Q: What about the GI50 (SNB-19) of the same compound?
A: > 100 µM (inactive)

Q: And the GI50 (A549)?
A: > 100 µM (inactive)

Q: And the GI50 (SN12C)?
A: > 100 µM (inactive)

Q: And the GI50 (HCT-15)?
A: > 100 µM

Q: And the GI50 (KM-20L2)?
A: > 100 µM (inactive)

Q: What about the GI50 (HL-60) of the same compound?
A: > 100 µM (inactive)

Q: And the GI50 (LOX IMVI)?
A: > 100 µM (inactive)

Q: And the GI50 (COLO 205)?
A: > 100 µM (inactive)

Q: What about the GI50 (NCI-H522) of the same compound?
A: > 100 µM (inactive)

Q: And the GI50 (CCRF-CEM)?
A: > 100 µM (inactive)

Q: And the GI50 (RXF 631)?
A: > 100 µM (inactive)

Q: What about the GI50 (NCI-H226) of the same compound?
A: 31.7 µM (inactive)

Q: And the GI50 (U-251)?
A: > 100 µM (inactive)

Q: And the GI50 (NCI-H23)?
A: > 100 µM (inactive)

Q: What about the GI50 (XF498) of the same compound?
A: > 100 µM (inactive)

Q: What about the GI50 (A498) of the same compound?
A: > 100 µM (inactive)

Q: And the GI50 (SF-295)?
A: > 100 µM (inactive)

Q: And the GI50 (ACHN)?
A: > 100 µM (inactive)

Q: What about the GI50 (UO-31) of the same compound?
A: > 100 µM (inactive)

Q: What about the GI50 (HT-29) of the same compound?
A: > 100 µM (inactive)

Q: What about the GI50 (CAKI-1) of the same compound?
A: > 100 µM (inactive)

Q: And the GI50 (SK-MEL-2)?
A: > 100 µM (inactive)

Q: And the GI50 (K562)?
A: > 100 µM (inactive)

Q: And the GI50 (OVCAR-8)?
A: > 100 µM (inactive)

Q: What about the GI50 (HCC 2998) of the same compound?
A: > 100 µM (inactive)

Q: What about the GI50 (EKVX) of the same compound?
A: > 100 µM (inactive)

Q: What about the GI50 (786-0) of the same compound?
A: > 100 µM (inactive)

Q: What about the GI50 (IGROV-1) of the same compound?
A: > 100 µM (inactive)

Q: What about the GI50 (M19-MEL) of the same compound?
A: > 100 µM (inactive)

Q: What about the GI50 (SW-620) of the same compound?
A: > 100 µM (inactive)

Q: And the GI50 (UACC-257)?
A: > 100 µM (inactive)

Q: What about the GI50 (LXFL 529) of the same compound?
A: > 100 µM (inactive)

Q: What about the GI50 (HCT-116) of the same compound?
A: > 100 µM (inactive)

Q: What about the GI50 (SF-539) of the same compound?
A: > 100 µM (inactive)

Q: And the GI50 (RPMI-8226)?
A: > 100 µM (inactive)

Q: And the GI50 (OVCAR-4)?
A: > 100 µM (inactive)

Q: What about the GI50 (DLD-1) of the same compound?
A: > 100 µM (inactive)

Q: How did the GI50 (DMS-114) turn out when `CCOc1ccc(NC(=O)CC2SC(Nc3ccc(C)cc3)=NC2=O)cc1` (stereo not given) was run?
A: > 100 µM (inactive)

Q: What about the GI50 (SR) of the same compound?
A: 50.9 µM (inactive)

Q: And the GI50 (Malme-3M)?
A: > 100 µM (inactive)

Q: And the GI50 (MOLT-4)?
A: 35.2 µM (inactive)

Q: What about the GI50 (HOP-62) of the same compound?
A: > 100 µM (inactive)

Q: And the GI50 (NCI-H460)?
A: > 100 µM (inactive)

Q: And the GI50 (OVCAR-5)?
A: > 100 µM (inactive)

Q: What about the GI50 (KM12) of the same compound?
A: > 100 µM (inactive)

Q: What about the GI50 (SNB-75) of the same compound?
A: > 100 µM (inactive)

Q: And the GI50 (SNB-78)?
A: > 100 µM (inactive)

Q: And the GI50 (UACC-62)?
A: > 100 µM (inactive)

Q: And the GI50 (SK-MEL-5)?
A: > 100 µM (inactive)

Q: What about the GI50 (SF-268) of the same compound?
A: > 100 µM (inactive)

Q: And the GI50 (TK-10)?
A: > 100 µM (inactive)

Q: And the GI50 (M14)?
A: > 100 µM (inactive)

Q: And the GI50 (DMS-273)?
A: > 100 µM (inactive)

Q: What about the GI50 (SNB-19) of the same compound?
A: > 100 µM (inactive)

Q: And the GI50 (A549)?
A: > 100 µM (inactive)

Q: And the GI50 (SN12C)?
A: > 100 µM (inactive)

Q: What about the GI50 (HCT-15) of the same compound?
A: > 100 µM

Q: And the GI50 (KM-20L2)?
A: > 100 µM (inactive)

Q: And the GI50 (LOX IMVI)?
A: > 100 µM (inactive)

Q: And the GI50 (COLO 205)?
A: > 100 µM (inactive)

Q: What about the GI50 (NCI-H522) of the same compound?
A: > 100 µM (inactive)

Q: What about the GI50 (CCRF-CEM) of the same compound?
A: 29.2 µM (inactive)

Q: And the GI50 (RXF 631)?
A: > 100 µM (inactive)

Q: What about the GI50 (RXF 393) of the same compound?
A: > 100 µM (inactive)

Q: What about the GI50 (U-251) of the same compound?
A: > 100 µM (inactive)

Q: And the GI50 (NCI-H23)?
A: > 100 µM (inactive)

Q: And the GI50 (XF498)?
A: > 100 µM (inactive)

Q: And the GI50 (A498)?
A: > 100 µM (inactive)

Q: And the GI50 (SF-295)?
A: > 100 µM (inactive)

Q: And the GI50 (ACHN)?
A: > 100 µM (inactive)

Q: What about the GI50 (UO-31) of the same compound?
A: > 100 µM (inactive)

Q: And the GI50 (HT-29)?
A: > 100 µM (inactive)

Q: And the GI50 (OVCAR-8)?
A: > 100 µM (inactive)

Q: What about the GI50 (EKVX) of the same compound?
A: > 100 µM (inactive)

Q: And the GI50 (786-0)?
A: > 100 µM (inactive)

Q: What about the GI50 (IGROV-1) of the same compound?
A: > 100 µM (inactive)

Q: And the GI50 (M19-MEL)?
A: > 100 µM (inactive)

Q: What about the GI50 (SK-MEL-28) of the same compound?
A: > 100 µM (inactive)

Q: What about the GI50 (SW-620) of the same compound?
A: > 100 µM (inactive)

Q: What about the GI50 (UACC-257) of the same compound?
A: > 100 µM (inactive)

Q: And the GI50 (LXFL 529)?
A: > 100 µM (inactive)

Q: What about the GI50 (HCT-116) of the same compound?
A: > 100 µM (inactive)

Q: And the GI50 (SF-539)?
A: > 100 µM (inactive)

Q: And the GI50 (OVCAR-3)?
A: > 100 µM (inactive)

Q: And the GI50 (OVCAR-4)?
A: > 100 µM (inactive)

Q: And the GI50 (SK-OV-3)?
A: > 100 µM (inactive)

Q: And the GI50 (DLD-1)?
A: > 100 µM (inactive)

Reference: ChEMBL document CHEMBL1201862, “PubChem BioAssay data set” (2004)
